Reference: patent US8394969B2, “Cyclic benzimidazole derivatives useful as anti-diabetic agents” (Merck Sharp & Dohme Corp., priority 2008, dated 2013)
Where two headings read alike, the source gives them in different places.

Molecular target: recombinant human AMPK complex 1 (containing α1β1γ1) (Homo sapiens, UniProt Q13131+Q9Y478)
Assay: […] (in vitro AMPK activation assay)
Format: biochemical
Settings: for Emax: basal activity subtracted; for EC50: read-out: EC50
[1] = recombinant human AMPK complex 1 (α1β1γ1), read-out: % Maximum AMP Activation of human AMPK Complex 1
[2] = recombinant human AMPK complex 1 (α1β1γ1)

recombinant human AMPK complex 1 (containing α1β1γ1), sequence (Q13131 whole entry): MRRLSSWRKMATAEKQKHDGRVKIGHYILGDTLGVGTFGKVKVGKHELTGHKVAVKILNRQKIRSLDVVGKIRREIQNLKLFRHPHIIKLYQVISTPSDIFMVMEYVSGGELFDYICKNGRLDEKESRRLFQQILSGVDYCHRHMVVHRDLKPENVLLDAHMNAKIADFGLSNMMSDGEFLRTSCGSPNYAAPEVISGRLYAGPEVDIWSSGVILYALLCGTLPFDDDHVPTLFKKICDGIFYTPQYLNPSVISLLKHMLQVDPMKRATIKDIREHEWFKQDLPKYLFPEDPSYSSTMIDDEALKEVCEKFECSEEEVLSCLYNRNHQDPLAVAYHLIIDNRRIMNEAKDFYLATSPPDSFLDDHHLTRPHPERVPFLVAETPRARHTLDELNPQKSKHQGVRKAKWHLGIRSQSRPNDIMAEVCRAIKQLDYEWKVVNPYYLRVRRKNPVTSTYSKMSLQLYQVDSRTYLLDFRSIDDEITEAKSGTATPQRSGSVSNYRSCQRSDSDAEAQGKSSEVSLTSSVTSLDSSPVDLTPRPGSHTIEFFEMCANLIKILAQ
recombinant human AMPK complex 1 (containing α1β1γ1), sequence (Q9Y478 whole entry): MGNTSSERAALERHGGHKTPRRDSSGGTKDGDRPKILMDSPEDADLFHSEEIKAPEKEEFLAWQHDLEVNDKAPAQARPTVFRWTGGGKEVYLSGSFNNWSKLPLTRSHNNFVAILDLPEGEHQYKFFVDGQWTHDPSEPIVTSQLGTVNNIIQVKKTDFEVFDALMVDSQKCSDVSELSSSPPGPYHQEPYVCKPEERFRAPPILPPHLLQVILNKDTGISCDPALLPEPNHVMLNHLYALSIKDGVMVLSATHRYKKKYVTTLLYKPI
recombinant human AMPK complex 1 (containing α1β1γ1), sequence (P54619 whole entry partner): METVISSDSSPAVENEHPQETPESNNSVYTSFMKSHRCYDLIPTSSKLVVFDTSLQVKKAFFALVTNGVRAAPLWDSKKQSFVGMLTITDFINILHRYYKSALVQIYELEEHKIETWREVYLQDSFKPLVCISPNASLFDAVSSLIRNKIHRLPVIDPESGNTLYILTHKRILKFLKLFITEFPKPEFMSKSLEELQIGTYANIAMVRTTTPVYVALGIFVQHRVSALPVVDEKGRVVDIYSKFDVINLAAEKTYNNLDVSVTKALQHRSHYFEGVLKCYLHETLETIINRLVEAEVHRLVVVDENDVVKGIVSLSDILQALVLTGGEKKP

Structure (SMILES): Cc1ccc(Oc2nc3cc(-c4ccc(-c5ccccc5)cc4)c(Cl)cc3[nH]2)cc1C(=O)NS(C)(=O)=O [Example 221, N-[5-(5-Biphenyl-4-yl-6-chloro-1H-benzoimidazol-2-yloxy)-2-methyl-benzoyl]-methanesulfonamide]
- Emax [1]: > 80%

Structure (SMILES): Cc1ccc(Oc2nc3cc(-c4ccc(C(F)(F)F)cc4)c(Cl)cc3[nH]2)cc1C(=O)O [Example 337, Ammonium 5-({6-chloro-5-[4-(trifluoromethyl)phen-yl]-1H-benzimidazol-2-yl}oxy)-2-methylbenzoate]
- Emax (read-out: % Maximum AMP Activation of human AMPK Complex 1, recombinant human AMPK complex 1 (α1β1γ1)): > 80%

Structure (SMILES): O=C1NC(=O)C(c2ccc(Oc3nc4cc(-c5ccc(-c6ccccc6)cc5)c(Cl)cc4[nH]3)cc2)N1 (centres unmarked) [Example 29, 5-[4-(5-Biphenyl-4-yl-6-chloro-1H-benzoimidazol-2-yloxy)-phenyl]-imidazolidine-2,4-dione]
- Emax [1]: > 80%

Structure (SMILES): Cc1ccc(Oc2nc3cc(-c4ccc(-c5ccccc5)s4)c(Cl)cc3[nH]2)cc1C(=O)O [Example 359, 5-{6-Chloro-5-(5-phenyl-thiophen-2-yl)-1H-benzoimidazol-2-yloxy}-2-methyl-benzoic acid]
- Emax [1]: > 80%

Structure (SMILES): COC(=O)c1cc(Oc2nc3cc(-c4ccc(-c5ccccc5Cl)cc4)c(Cl)cc3[nH]2)ccc1C [Example 196, Methyl 5-{[6-chloro-5-(2′-chlorobiphenyl-4-yl)-1H-benzimidazol-2-yl]oxy}-2-methylbenzoate]
- Emax [1]: > 80%

Structure (SMILES): Cc1ccc(Oc2nc3cc(-c4ccc5[nH]ncc5c4)c(Cl)cc3[nH]2)cc1C(=O)O [Example 153, 5-[6-Chloro-5-(1H-indazol-5-yl)-1H-benzoimidazol-2-yloxy]-2-methyl-benzoic acid]
- Emax [1]: > 80%

Structure (SMILES): Cc1ccc(Oc2nc3cc(-c4ccc(N5CCN(C(=O)OC(C)(C)C)CC5)nc4)c(Cl)cc3[nH]2)cc1C(=O)O [Example 175, 4-{5-[2-(3-Carboxy-4-methyl-phenoxy)-6-chloro-1H-benzoimidazol-5-yl]-pyridin-2-yl}-piperazine-1-carboxylic acid tert-butyl ester]
- Emax [1]: > 80%

Structure (SMILES): Cc1ccc(Oc2nc3cc(-c4ccc(C(=O)N5CCC(O)CC5)cc4)c(Cl)cc3[nH]2)cc1C(=O)O [Example 236, 5-{6-Chloro-5-[4-(4-hydroxy-piperidine-1-carbonyl)-phenyl]-1H-benzoimidazol-2-yloxy}-2-methyl-benzoic acid]
- EC50 [2]: 10 nM

Structure (SMILES): O=C(O)Cn1nnc(-c2cccc(Oc3nc4cc(-c5ccc(-c6ccccc6)cc5)c(Cl)cc4[nH]3)c2)n1 [Example 40, {5-[3-(5-Biphenyl-4-yl-6-chloro-1H-benzoimidazol-2-yloxy)-phenyl]-tetrazol-2-yl}-acetic acid]
- Emax [1]: > 80%

Structure (SMILES): Cc1ccc(Oc2nc3cc(-c4ccc5c(c4)CCN5C)c(Cl)cc3[nH]2)cc1C(=O)O [Example 282, 5-[6-Chloro-5-(1-methyl-2,3-dihydro-1H-indol-5-yl)-1H-benzoimidazol-2-yloxy]-2-methyl-benzoic acid]
- Emax [1]: > 80%

Structure (SMILES): COc1ccccc1C#Cc1cc2nc(Oc3ccc(C)c(C(=O)O)c3)[nH]c2cc1Cl [Example 106, 5-[6-Chloro-5-(2-methoxy-phenylethynyl)-1H-benzoimidazol-2-yloxy]-2-methyl-benzoic acid]
- Emax [1]: > 80%

Structure (SMILES): Cc1cc(Oc2nc3cc(-c4ccc5c(ccn5C)c4)c(Cl)cc3[nH]2)cc(C(=O)O)c1C [Example 311, 5-[6-Chloro-5-(1-methyl-1H-indol-5-yl)-1H-benzoimidazol-2-yloxy]-2,3-dimethyl-benzoic acid]
- Emax [1]: > 80%

Structure (SMILES): Cc1ccc(Oc2nc3cc(C#Cc4ccc(-c5csnn5)cc4)c(Cl)cc3[nH]2)cc1C(=O)O [Example 85, 5-[6-Chloro-5-(4-[1,2,3]thiadiazol-4-yl-phenylethynyl)-1H-benzoimidazol-2-yloxy]-2-methyl-benzoic acid]
- Emax [1]: > 80%

Structure (SMILES): Cc1ccc(Oc2nc3cc(-c4ccc(N(C)C)c(F)c4)c(Cl)cc3[nH]2)cc1C(=O)O [Example 296, 2-(3-carboxy-4-methylphenoxy)-6-chloro-5-[4-(dimethylamino)-3-fluorophenyl]-1H-3,1-benzimidazol-3-ium chloride]
- Emax [1]: > 80%

Structure (SMILES): Cc1ccc(Oc2nc3cc(-c4ccc5c(c4)cc(CO)n5C)c(Cl)cc3[nH]2)cc1C(=O)O [Example 274, 5-[6-Chloro-5-(2-hydroxymethyl-1-methyl-1H-indol-5-yl)-1H-benzoimidazol-2-yloxy]-2-methyl-benzoic acid]
- Emax [1]: > 80%

Structure (SMILES): Cc1ccc(Oc2nc3cc(-c4ccc5c(c4)C(C)(C)CCC5(C)C)c(Cl)cc3[nH]2)cc1C(=O)O [Example 358, 5-[6-Chloro-5-(5,5,8,8-tetramethyl-5,6,7,8-tetrahydro-naphthalen-2-yl)-1H-benzoimidazol-2-yloxy]-2-methyl-benzoic acid]
- Emax [1]: > 80%

Structure (SMILES): COC(=O)c1ccc(-c2cc3nc(Oc4ccc(C)c(C(=O)O)c4)[nH]c3cc2Cl)c2ccn(C)c12 [Example 269, 4-[2-(3-Carboxy-4-methyl-phenoxy)-6-chloro-1H-benzoimidazol-5-yl]-1-methyl-1H-indole-7-carboxylic acid methyl ester]
- Emax [1]: > 80%

Structure (SMILES): CCOC(=O)c1c(C)[nH]c2ccc(Oc3nc4cc(-c5ccc(-c6ccccc6)cc5)c(Cl)cc4[nH]3)cc12 [Example 4, 5-(5-Biphenyl-4-yl-6-chloro-1H-benzoimidazol-2-yloxy)-2-methyl-1H-indole-3-carboxylic acid ethyl ester]
- Emax [1]: > 80%

Structure (SMILES): Cc1ccc(Oc2nc3cc(-c4ccc5c(ccn5C)c4)c(Cl)cc3[nH]2)cc1C(=O)O [Example 229, 5-{[6-chloro-5-(1-methyl-1H-indol-5-yl)-1H-benzimidazol-2-yl]oxy}-2-methylbenzoic acid]
- EC50 [2]: 3 nM

Structure (SMILES): Cc1ccc(Oc2nc3cc(C#Cc4ccc(-n5cccn5)cc4)c(Cl)cc3[nH]2)cc1C(=O)O [Example 71, 5-[6-Chloro-5-(4-pyrazol-1-yl-phenylethynyl)-1H-benzoimidazol-2-yloxy]-2-methyl-benzoic acid]
- Emax [1]: > 80%

Structure (SMILES): CC(=O)c1ccc(-c2cc3nc(Oc4cc(C)c(C)c(C(=O)O)c4)[nH]c3cc2Cl)cc1 [Example 317, 5-[5-(4-Acetyl-phenyl)-6-chloro-1H-benzoimidazol-2-yloxy]-2,3-dimethyl-benzoic acid]
- Emax [1]: > 80%

Structure (SMILES): COC(=O)c1cc(Oc2nc3cc(-c4ccc(-c5ccccc5C)cc4)c(Cl)cc3[nH]2)ccc1C [Example 198, Methyl 5-{[6-chloro-5-(2′-methylbiphenyl-4-yl)-1H-benzimidazol-2-yl]oxy}-2-methylbenzoate]
- Emax [1]: > 80%

Structure (SMILES): Cc1ccc(Oc2nc3cc(C#Cc4ccc(C(=O)O)cc4)c(Cl)cc3[nH]2)cc1C(=O)O [Example 181, 5-[5-(4-Carboxy-phenylethynyl)-6-chloro-1H-benzoimidazol-2-yloxy]-2-methyl-benzoic acid]
- Emax [1]: > 80%

Structure (SMILES): Cc1ccc(Oc2nc3cc(-c4ccc5c(C)noc5c4)c(Cl)cc3[nH]2)cc1C(=O)O [Example 265, 5-[6-chloro-5-(3-methyl-benzo[d]isoxazol-6-yl)-1H-benzoimidazol-2-yloxy]-2-methyl-benzoic acid]
- Emax [1]: > 80%

Structure (SMILES): O=C(O)c1cc(Oc2nc3cc(-c4ccc(-c5ccccc5)cc4)c(Cl)cc3[nH]2)ccc1O [Example 28, 5-(5-Biphenyl-4-yl-6-chloro-1H-benzoimidazol-2-yloxy)-2-hydroxy-benzoic acid]
- Emax [1]: > 80%

Structure (SMILES): O=C(O)c1cc(COc2nc3cc(-c4ccc(-c5ccccc5)cc4)c(Cl)cc3[nH]2)cc(C(=O)O)c1 [Example 227, 5-(5-Biphenyl-4-yl-6-chloro-1H-benzoimidazol-2-yloxymethyl)-isophthalic acid]
- Emax [1]: > 80%
